What all share (assay): NCI tumour cell line growth inhibition, 48 h
For experiment [1], the system named is HCT-15 colon.
The test system of experiment [2] is CCRF-CEM leukemia.
For experiment [3], the system named is SNB-19 CNS.
For experiment [4], the system named is CAKI-1 renal.
Experiment [5] concerns HL-60(TB) leukemia.
Experiment [6] deals with HOP-92 NSCLC.
Experiment [7] deals with SN12C renal.
The subject of experiment [8] is MALME-3M melanoma.
Experiment [9] deals with SK-MEL-2 melanoma.
Experiment [10] deals with UO-31 renal.

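Where inhibition never reached the appropriate level, the endpoint shown equals the highest concentration tested. Otherwise, values were interpolated linearly from a five-concentration, 48-hour dose response in 96-well plates. Abbreviation: GI50, concentration required for 50% inhibition of growth. The concentration for full growth arrest is given as TGI.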

In the case of `CC(OP(=O)(O)O)C(N)C(=O)O` (configuration not stated), the TGI in experiment [1], in experiment [2], in experiment [3], in experiment [4], in experiment [5] and in [6] was more than 100 µM throughout. For the same compound, the TGI in experiment [7], in experiment [8], in experiment [9] and in experiment [10] was more than 100 µM throughout.
As to `O=c1cc(-c2ccccc2)oc2c1ccc1[nH]c3ccccc3c(=O)c12`, the TGI in experiment [1], in [2], in experiment [3], in experiment [4], in [5] and in [6] was more than 100 µM throughout. Besides, the TGI in experiment [7], in experiment [8], in [9] and in experiment [10] was more than 100 µM in each case.
Take `Cc1ccc(N2C(=O)C3CSCN3C2=O)cc1` (configuration not stated): the TGI in experiment [1], in experiment [2], in experiment [3], in experiment [4], in experiment [5] and in experiment [6] was more than 100 µM throughout. The TGI in experiment [7], in experiment [8], in experiment [9] and in experiment [10] was more than 100 µM each time. Moreover, in experiment [8], the GI50 was more than 100 µM.
As to `O=c1cc(N2CCOCC2)n2c(ccc3ccccc32)n1`, the TGI in experiment [1], in [2], in [3], in experiment [4], in [5] and in [6] was more than 100 µM each time. Also, the TGI in experiment [7], in experiment [8], in [9] and in experiment [10] was more than 100 µM throughout.
For `Clc1ccc(-c2nn3c(COc4cccc(OCc5nnc6sc(-c7ccc(Cl)cc7)nn56)c4)nnc3s2)cc1`, the TGI in [1] is more than 100 µM; in [3], more than 100 µM; in experiment [4], 48.8 µM; in experiment [5], 53.6 µM; in [6], more than 100 µM; in experiment [7], 29.1 µM. For the same compound, the TGI in experiment [8] was 50.4 µM; in [9], more than 100 µM; in experiment [10], 39.6 µM.
As to `O=C1C=CC2(O[C@H](C3CCCCC3)[C@@H](C3CCCCC3)O2)C(SC(=O)c2ccccc2)C1` (some centres not stated), the TGI stood at 9.47 µM in [1]; 5.87 µM in [2]; 6.56 µM in experiment [3]; 7.37 µM in [5]; 16.8 µM in experiment [6]; 6.58 µM in experiment [7]. In addition, the TGI in [8] came out at 10.5 µM; in experiment [9] it was 12.8 µM; in experiment [10], 4.31 µM.
On to `COC(=O)c1c2c(cc3c1CC1(Cc4cc5c(c(C)c4C1)CCC5)C3)CCC2` (configuration not stated), for which the TGI in experiment [1], in [2], in experiment [3], in [4], in [5] and in experiment [6] was more than 100 µM in each case. Also, the TGI in experiment [8], in experiment [9] and in [10] was more than 100 µM in each case.
As for `C=CC(C)(C)/C=C/c1ccc(O)cc1`, the TGI in [1], in [2], in [3], in [4], in [5] and in experiment [6] was more than 100 µM throughout. Further, the TGI in [7] is more than 100 µM; in experiment [8], more than 100 µM; in experiment [9] it was 60.5 µM.
For `CCC1=C(C[C@H]2NCCc3cc(OC)c(OC)cc32)C[C@H]2c3cc(OC)c(OC)cc3CCN2C1`, the TGI in [1] was 1.02 µM; in [4], 0.199 µM; in experiment [5] it was 0.0765 µM; in experiment [6], 0.095 µM; in experiment [7], 0.193 µM; in experiment [8], 0.637 µM. Also, the TGI in experiment [9] was 0.0713 µM; in experiment [10], 0.923 µM.
In the case of `Cc1cc2c(=O)c3ccc(Cl)cc3[nH]c2c(C(N)=O)c1C`, the TGI in [1], in [2], in [3], in [5], in [6] and in experiment [7] was more than 100 µM in each case. Besides, the TGI in experiment [8], in experiment [9] and in experiment [10] was more than 100 µM in each case.
Regarding `Cc1cc(=O)[nH]c(NNC(C#N)c2ccccc2O)n1` (configuration not stated), the TGI in [1] was more than 100 µM; in experiment [2] it was more than 100 µM; in [4], 93.6 µM; in [5], 50.5 µM; in experiment [6] it was more than 100 µM; in experiment [7] it was more than 100 µM. In addition, the results for the TGI in experiment [8], in experiment [9] and in [10] were more than 100 µM, more than 100 µM and 56.8 µM, respectively.
Regarding `CC(=O)CC(=O)N1CCSC1=S`, the TGI in experiment [1], in [2], in experiment [3], in experiment [5], in experiment [6] and in [7] was more than 10 µM in each case. The TGI in [8], in experiment [9] and in experiment [10] was more than 10 µM in each case.
